Source: ChEMBL document CHEMBL1201862, “PubChem BioAssay data set” (2004)
Calls of active or inactive are those of the source.

How the values were obtained:
[1] = molecular target: Disintegrin and metalloproteinase domain-containing protein 17 (Homo sapiens, UniProt P78536); experiment: inhibition of ADAM17 substrate cleavage – biochemical, quenched FRET substrate, counter-screen for ADAM10 exosite inhibitor project, dose response (AID 743253)
[2] = potency of ADAM10 substrate cleavage blockers – biochemical, QFRET, dose response (AID 743254);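 also: ADAM10 enzyme with the DM2 quenched FRET peptide as substrate; EDANS fluorescence gain as the protease cuts the substrate; inhibitor potency against ADAM10 proteolytic activity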
[3] = molecular target: 1-phosphatidylinositol 4,5-bisphosphate phosphodiesterase beta-3 (Homo sapiens, UniProt Q01970); experiment: Fluorescence-based biochemical high throughput dose response assay to identify inhibitors of phospholipase C isozymes (PLC-B3).
[4] = molecular target: 1-phosphatidylinositol 4,5-bisphosphate phosphodiesterase gamma-1 (Homo sapiens, UniProt P19174); experiment: Counterscreen for inhibitors of phospholipase C isozymes (PLC-B3): Fluorescence-based biochemical high throughput dose response assay to identify inhibitors of phospholipase C isozymes (PLC-gamma1).
[5] = SNU-C1 cell viability reduction, dose response, CellTiter-Glo luminescence (AID 1117323); format: functional, cell-based
[6] = cytotoxicity toward HT-29 cells – cell-based, CellTiter-Glo luminescence, IC50, dose response (AID 1117330); format: functional
[7] = cytotoxicity toward HCT116 cells – cell-based, CellTiter-Glo luminescence, IC50, dose response (AID 1117332); format: functional; conditions: HCT-116
[8] = HCT116 cell viability decrease, GSK3B pretreatment – CellTiter-Glo, IC50, dose response (AID 1117339); format: functional; conditions: HCT-116
[9] = CellTiter-Glo luminescence survival assay, SW480 colon tumor line, concentration-response curve, half-maximal inhibitory concentration (AID 1117338); format: functional
[10] = cytotoxicity toward Colo320 cells – cell-based, CellTiter-Glo luminescence, IC50, dose response (AID 1117334); format: functional; conditions: COLO 320
[11] = Reduced DLD-1 viability, concentration-response, CellTiter-Glo luminescence (AID 1117352); format: functional
[12] = RKO cell viability reduction, dose response, CellTiter-Glo luminescence (AID 1117322); format: functional
[13] = IC50 of insulin release inhibition, rat insulinoma INS-1E line, 5 mM glucose, cell-based (AID 1117331); format: functional
[14] = glucagon-like peptide-1 release potency in STC-1, concentration-response, half-maximal inhibitory concentration in the STC-1 line (AID 1117345); format: functional, cell-based
[15] = Potency on glucagon-like peptide 1 release, dose-response in NCI-H716 cell line, half maximal inhibitory concentration (AID 1117344); format: functional, cell-based
[16] = molecular target: T1, Oxysterols receptor LXR-beta (Homo sapiens, UniProt P55055); format: functional, cell-based;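 also: agonist activity at LXR measured by a cell-based luminescence readout across a dose range, run as a counterscreen for daf-12 agonists; HEK293 cells with Gal4-LXR fusion and GAL4-driven luciferase reporter; potency for activation of Gal4-LXR reporter so compounds are agonists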
T1 sequence (P55055 whole entry): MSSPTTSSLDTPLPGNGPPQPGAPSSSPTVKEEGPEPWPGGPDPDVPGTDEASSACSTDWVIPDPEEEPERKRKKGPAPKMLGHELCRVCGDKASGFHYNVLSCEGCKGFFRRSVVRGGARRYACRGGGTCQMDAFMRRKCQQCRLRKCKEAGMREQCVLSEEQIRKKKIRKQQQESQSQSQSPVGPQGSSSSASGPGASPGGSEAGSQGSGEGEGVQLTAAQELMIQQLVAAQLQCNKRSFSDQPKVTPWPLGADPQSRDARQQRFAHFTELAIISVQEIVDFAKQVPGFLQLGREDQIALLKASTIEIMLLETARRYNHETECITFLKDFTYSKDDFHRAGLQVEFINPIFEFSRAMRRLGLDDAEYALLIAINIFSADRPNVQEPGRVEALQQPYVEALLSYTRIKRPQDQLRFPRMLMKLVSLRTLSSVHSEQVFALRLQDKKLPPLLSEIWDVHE

[17] = molecular target: Neurotensin receptor type 1 (Homo sapiens, UniProt P30989); format: functional;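 also: Image-based confirmatory dose-response assay measuring agonist activity at NTR1; NTR1-expressing U2OS osteosarcoma cells imaged for beta-arrestin GFP spot formation; agonist potency where compounds increase beta-arrestin recruitment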
[18] = inhibitors acting on PAX2 in cells – cell-based, plate reader, dry powder samples, selectivity assay for PAX8 inhibitor project, dose response (AID 743048); format: functional;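 also: HEK293 cells carrying a WT1 promoter luciferase reporter driven by expressed Pax2; potency is for inhibition of Pax2 driven reporter signal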
[19] = COV362 cell viability loss – plate reader, dry powder, SA12, cytotoxicity control for PAX8 inhibitor project, dose response (AID 743144); format: functional, cell-based
[20] = molecular target: Paired box protein Pax-8 (Homo sapiens, UniProt Q06710); experiment: PAX8 transcriptional activity inhibition in RMG-I – RMG-I cells, luciferase, cherry-pick, dose response (AID 687027); format: functional, cell-based;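 also: luciferase reporter driven by Pax8 target thyroperoxidase promoter measured by SteadyGlo luminescence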
[21] = OV-90 cell viability loss – plate reader, dry powder, SA8, PAX8 inhibitor project, dose response (AID 743149); format: functional, cell-based
[22] = PAX5 cellular inhibition readout – cell-based, plate reader, dry powder samples, selectivity assay for PAX8 inhibitor project, dose response (AID 743047); format: functional;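 also: HEK293 cells carrying a Pax5 driven CD19 promoter luciferase reporter; potency of inhibitors that lower reporter luminescence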
[23] = PAX8-dependent cell viability loss – plate reader, dry powder, dose response (AID 743049); format: functional, cell-based
[24] = OVCAR4 cell viability loss – plate reader, dry powder, SA11, cytotoxicity control for PAX8 inhibitor project, dose response (AID 743150); format: functional, cell-based; conditions: OVCAR-4
[25] = system: Streptococcus; experiment: GAS UMAA2166 growth inhibition – luminescence, BacTiterGlo, counter-screen for streptokinase expression inhibitor project, dose response (AID 1915); format: functional, organism-based;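 also: potency for reduction of bacterial viability or growth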
[26] = system: Streptococcus sp. 'group A'; experiment: Streptococcus pyogenes SK(-)GAS viability under kanamycin – luminescence, BacTiterGlo, confirmation, counter-screen for streptokinase expression inhibitor project, dose response (AID 1900); format: functional, organism-based
[27] = reduction of Shn3 3'UTR-driven luciferase in osteoblasts – cell-based, Clone20 osteoblasts, firefly luciferase, cherry-picked, dose response (AID 624132); format: functional;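 also: firefly luciferase luminescence from reporter carrying the Shn3 3'UTR in osteoblasts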
[28] = loss of viability in HepG2 cells – cell-based, CellTiter-Glo, cherry-picked, cytotoxicity control for Shn3 inhibitor project, dose response (AID 624134); format: functional
[29] = Shn3 3'UTR reporter signal decrease – cell-based, Clone20 osteoblasts, firefly luciferase, cherry-pick, set 2, Schnurri-3 inhibitor project, dose response (AID 720490); format: functional;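 also: actives lower the luminescence signal as inhibitors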
[30] = molecular target: T2, Streptokinase A (Streptococcus pyogenes serotype M1, UniProt P10520); experiment: viability-normalized secreted streptokinase activity reduction – plasminogen activation absorbance, OD405, dose response (AID 1914); format: functional, Streptococcus pyogenes M1 GAS;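 also: secreted streptokinase activity via plasminogen activation per viability signal from cell pellet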
T2 sequence (P10520 whole entry): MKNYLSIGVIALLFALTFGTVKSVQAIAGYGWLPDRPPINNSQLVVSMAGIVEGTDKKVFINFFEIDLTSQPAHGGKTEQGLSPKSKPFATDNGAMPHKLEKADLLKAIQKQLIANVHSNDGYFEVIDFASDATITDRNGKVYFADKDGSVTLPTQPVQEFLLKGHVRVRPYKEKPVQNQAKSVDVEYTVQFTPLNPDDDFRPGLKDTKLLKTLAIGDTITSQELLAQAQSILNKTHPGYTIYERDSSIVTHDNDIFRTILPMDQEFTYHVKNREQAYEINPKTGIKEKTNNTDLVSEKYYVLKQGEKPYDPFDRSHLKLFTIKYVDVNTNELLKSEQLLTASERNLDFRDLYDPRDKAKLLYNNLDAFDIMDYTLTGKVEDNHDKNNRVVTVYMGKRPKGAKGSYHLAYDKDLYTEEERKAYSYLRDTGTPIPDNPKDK

[31] = Luminescence Cell-Based Dose Retest to Confirm Inhibitors of Cancer Stem Cells. [Related pubchem assays (depositor defined):AID2717, AID2721]; format: functional; conditions: Homo sapiens
[32] = molecular target: G-protein coupled receptor 183 (Homo sapiens, UniProt P32249); experiment: SAR confirmation of small molecule antagonists of the EBI2 receptor via a luminescent beta-arrestin assa.; format: functional
[33] = IGROV1 cell killing – plate reader, dry powder samples, PAX8 inhibitor project, dose response (AID 743043); format: functional, cell-based; conditions: IGROV-1
[34] = OVCAR-3 cell viability loss – plate reader, dry powder samples, PAX8 inhibitor project, dose response (AID 743044); format: functional, cell-based
[35] = COV434 cell viability loss – plate reader, dry powder, SA7, cytotoxicity control for PAX8 inhibitor project, dose response (AID 743145); format: functional, cell-based
[36] = viability loss in HepG2 hepatoma cells – cell-based, ATP luminescence, cherry-pick, activator set 2, cytotoxicity control, dose response (AID 1053143); format: functional
[37] = growth inhibition of yeast DHODH-expressing 3D7 parasites – SYBR Green, dry powder samples, dose response (AID 1159570); format: functional, cell-based;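 also: parasite growth measured after 72 hours of compound exposure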
[38] = P. falciparum Dd2 growth inhibitors, dose response, SYBR Green, cherry-picked samples (AID 1159567); format: functional, cell-based
[39] = toxicity to human HepG2 hepatoma cells – cell-based, plate reader, dry powder samples, cytotoxicity control, dose response (AID 1159569); format: functional;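 also: inhibitor potency with signal falling toward the positive control level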
[40] = Dd2 malaria parasite growth inhibition potency – SYBR Green, dry powder samples, dose response (AID 1159566); format: functional, cell-based;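 also: potency for growth inhibition with lower SYBR green DNA signal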
[41] = Dd2 parasite growth inhibition in erythrocytes – SYBR Green, dry powder samples, set 9, dose response (AID 1159568); format: functional, cell-based
[42] = growth inhibition of PfATP4-mutant resistant parasites – NITD609-resistant line, SYBR Green, dry powder, dose response (AID 1159571); format: functional, cell-based;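 also: parasites synchronized at ring stage by sorbitol before testing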

Chain of Disintegrin and metalloproteinase domain-containing protein 17 (P78536 whole entry, the tested form may be a part): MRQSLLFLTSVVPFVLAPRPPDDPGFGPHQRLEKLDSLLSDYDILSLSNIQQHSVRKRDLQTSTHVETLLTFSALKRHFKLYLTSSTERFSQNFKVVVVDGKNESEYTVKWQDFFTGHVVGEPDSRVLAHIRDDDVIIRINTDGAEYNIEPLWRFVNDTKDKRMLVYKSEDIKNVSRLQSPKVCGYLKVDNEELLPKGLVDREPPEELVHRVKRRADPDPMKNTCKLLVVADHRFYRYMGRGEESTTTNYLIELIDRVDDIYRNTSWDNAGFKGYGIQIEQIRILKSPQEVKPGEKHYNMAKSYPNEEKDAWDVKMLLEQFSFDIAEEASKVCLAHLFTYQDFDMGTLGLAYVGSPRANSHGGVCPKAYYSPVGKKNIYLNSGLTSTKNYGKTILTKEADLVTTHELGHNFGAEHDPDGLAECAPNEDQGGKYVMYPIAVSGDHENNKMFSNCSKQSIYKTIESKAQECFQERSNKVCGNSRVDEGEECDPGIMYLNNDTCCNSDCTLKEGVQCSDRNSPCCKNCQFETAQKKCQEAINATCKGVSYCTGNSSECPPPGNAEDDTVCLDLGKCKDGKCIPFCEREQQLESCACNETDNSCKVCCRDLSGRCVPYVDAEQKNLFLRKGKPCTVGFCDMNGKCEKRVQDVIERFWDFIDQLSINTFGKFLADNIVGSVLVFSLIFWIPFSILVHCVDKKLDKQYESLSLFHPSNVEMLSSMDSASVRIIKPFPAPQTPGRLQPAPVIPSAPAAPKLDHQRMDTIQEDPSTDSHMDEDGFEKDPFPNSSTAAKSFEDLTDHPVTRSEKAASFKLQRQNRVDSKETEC
Chain of 1-phosphatidylinositol 4,5-bisphosphate phosphodiesterase gamma-1 (P19174 whole entry): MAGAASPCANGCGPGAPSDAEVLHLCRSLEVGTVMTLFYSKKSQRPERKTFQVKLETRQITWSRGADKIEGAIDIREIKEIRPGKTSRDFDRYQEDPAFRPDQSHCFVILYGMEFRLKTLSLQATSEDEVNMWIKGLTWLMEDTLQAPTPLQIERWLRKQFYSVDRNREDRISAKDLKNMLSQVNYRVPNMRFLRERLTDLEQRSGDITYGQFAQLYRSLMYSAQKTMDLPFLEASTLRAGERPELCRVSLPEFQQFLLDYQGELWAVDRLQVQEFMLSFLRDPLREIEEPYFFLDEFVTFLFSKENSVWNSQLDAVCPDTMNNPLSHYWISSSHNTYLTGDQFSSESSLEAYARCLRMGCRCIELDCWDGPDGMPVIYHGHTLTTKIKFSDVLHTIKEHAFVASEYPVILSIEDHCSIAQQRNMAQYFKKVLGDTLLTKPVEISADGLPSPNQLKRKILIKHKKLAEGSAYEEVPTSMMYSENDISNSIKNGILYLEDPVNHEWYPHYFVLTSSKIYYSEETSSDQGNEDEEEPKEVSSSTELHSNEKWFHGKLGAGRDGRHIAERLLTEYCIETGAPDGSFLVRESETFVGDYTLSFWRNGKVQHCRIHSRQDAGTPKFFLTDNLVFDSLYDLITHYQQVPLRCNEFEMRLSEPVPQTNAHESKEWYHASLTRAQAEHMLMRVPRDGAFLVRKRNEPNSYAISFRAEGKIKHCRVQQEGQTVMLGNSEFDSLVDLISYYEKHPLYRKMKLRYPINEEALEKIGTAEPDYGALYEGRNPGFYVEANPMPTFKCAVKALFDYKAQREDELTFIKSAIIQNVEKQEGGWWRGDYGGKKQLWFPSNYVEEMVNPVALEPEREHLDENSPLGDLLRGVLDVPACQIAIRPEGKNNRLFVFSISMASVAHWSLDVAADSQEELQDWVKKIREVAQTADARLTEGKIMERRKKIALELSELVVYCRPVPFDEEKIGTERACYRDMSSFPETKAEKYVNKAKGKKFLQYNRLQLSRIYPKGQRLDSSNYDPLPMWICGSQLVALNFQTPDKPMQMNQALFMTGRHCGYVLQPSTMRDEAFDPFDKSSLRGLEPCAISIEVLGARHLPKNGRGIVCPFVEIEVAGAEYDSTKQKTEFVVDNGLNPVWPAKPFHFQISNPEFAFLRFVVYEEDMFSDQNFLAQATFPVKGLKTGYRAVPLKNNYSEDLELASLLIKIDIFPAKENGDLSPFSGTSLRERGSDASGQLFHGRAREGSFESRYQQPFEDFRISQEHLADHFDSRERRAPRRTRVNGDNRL
Chain of 1-phosphatidylinositol 4,5-bisphosphate phosphodiesterase beta-3 (Q01970 whole entry): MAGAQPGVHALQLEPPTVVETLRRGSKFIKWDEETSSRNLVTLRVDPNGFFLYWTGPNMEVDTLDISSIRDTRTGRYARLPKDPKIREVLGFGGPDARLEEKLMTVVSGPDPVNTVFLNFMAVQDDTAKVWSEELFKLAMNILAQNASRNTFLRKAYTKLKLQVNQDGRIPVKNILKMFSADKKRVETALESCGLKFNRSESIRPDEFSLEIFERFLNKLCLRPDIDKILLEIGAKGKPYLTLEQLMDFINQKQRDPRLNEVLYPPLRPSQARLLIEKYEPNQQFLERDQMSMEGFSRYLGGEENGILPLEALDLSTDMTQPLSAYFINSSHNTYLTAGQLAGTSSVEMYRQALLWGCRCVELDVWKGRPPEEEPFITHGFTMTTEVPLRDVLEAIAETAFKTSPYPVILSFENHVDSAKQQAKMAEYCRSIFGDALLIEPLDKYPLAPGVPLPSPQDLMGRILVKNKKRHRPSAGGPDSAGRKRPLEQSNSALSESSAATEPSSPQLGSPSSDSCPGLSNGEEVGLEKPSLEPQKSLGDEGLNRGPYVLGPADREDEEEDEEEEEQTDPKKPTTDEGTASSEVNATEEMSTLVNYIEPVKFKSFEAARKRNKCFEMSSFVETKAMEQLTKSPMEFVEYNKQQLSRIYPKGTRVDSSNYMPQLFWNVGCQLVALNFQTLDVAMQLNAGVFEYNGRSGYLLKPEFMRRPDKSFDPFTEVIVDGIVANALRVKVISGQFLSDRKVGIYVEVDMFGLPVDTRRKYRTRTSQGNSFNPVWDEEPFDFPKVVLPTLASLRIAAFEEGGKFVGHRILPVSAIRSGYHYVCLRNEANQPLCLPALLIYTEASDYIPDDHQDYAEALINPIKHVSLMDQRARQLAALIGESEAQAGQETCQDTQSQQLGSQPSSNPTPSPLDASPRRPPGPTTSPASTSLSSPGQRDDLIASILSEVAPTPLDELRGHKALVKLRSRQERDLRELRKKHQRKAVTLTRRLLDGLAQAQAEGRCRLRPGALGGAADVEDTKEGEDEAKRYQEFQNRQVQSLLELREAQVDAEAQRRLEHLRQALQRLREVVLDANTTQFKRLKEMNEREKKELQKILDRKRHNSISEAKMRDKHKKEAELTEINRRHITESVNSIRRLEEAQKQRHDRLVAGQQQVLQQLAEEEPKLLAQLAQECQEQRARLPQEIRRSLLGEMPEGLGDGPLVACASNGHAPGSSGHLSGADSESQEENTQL
Chain of G-protein coupled receptor 183 (P32249 whole entry): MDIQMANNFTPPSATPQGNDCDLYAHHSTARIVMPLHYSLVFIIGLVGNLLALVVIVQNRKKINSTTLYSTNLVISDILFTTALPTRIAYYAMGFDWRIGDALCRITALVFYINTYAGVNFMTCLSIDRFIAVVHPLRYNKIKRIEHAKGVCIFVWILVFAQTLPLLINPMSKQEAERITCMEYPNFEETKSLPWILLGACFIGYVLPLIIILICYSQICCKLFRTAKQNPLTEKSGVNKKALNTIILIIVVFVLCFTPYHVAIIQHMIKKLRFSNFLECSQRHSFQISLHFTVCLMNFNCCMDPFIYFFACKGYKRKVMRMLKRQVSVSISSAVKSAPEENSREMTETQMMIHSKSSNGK
Chain of Paired box protein Pax-8 (Q06710 whole entry): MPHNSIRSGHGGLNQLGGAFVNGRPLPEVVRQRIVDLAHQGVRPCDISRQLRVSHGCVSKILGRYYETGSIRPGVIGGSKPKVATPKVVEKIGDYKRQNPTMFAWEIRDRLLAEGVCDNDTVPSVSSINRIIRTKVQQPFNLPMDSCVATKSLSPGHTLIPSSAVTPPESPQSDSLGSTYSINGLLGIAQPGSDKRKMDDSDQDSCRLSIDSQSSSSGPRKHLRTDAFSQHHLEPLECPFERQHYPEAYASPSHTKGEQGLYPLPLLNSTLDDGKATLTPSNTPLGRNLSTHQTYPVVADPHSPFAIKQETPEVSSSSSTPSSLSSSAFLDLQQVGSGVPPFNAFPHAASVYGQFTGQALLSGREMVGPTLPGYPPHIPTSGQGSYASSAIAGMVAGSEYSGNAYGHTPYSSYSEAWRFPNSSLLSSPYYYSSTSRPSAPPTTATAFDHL
Chain of Neurotensin receptor type 1 (P30989 whole entry): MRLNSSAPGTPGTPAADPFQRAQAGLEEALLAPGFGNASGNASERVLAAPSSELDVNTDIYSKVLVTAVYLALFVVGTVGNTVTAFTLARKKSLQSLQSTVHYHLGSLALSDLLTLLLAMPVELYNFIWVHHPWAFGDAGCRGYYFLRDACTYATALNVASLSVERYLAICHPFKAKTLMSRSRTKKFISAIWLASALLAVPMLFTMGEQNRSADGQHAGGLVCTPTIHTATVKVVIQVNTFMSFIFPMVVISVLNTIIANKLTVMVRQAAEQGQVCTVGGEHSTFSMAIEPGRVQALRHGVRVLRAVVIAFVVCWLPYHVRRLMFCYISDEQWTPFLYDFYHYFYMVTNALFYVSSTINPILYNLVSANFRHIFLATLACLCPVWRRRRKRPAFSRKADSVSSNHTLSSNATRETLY

## CSc1cccc(NC(=O)CCCOc2ccc(Cl)cc2C)c1
[1]
  IC50: > 69.5 µM (inactive)
[2]
  IC50: 65.6 µM (inactive)

## Cc1cc(C(=O)NNC(=S)NCC(C)C)cs1
[3]
  IC50: > 122 µM (inactive)
[4]
  IC50: > 122 µM (inactive)

## CCCCCCCCCCCCCCCC(=O)OCC=C(C)C=CC=C(C)C=CC1=C(C)CCCC1(C)C
[5]
  IC50: > 20 µM (inactive)
[6]
  IC50: > 20 µM (inactive)
[7]
  IC50: > 20 µM (inactive)
[8]
  IC50: > 20 µM (inactive)
[9]
  IC50: > 20 µM (inactive)
[10]
  IC50: > 20 µM (inactive)
[11]
  IC50: > 20 µM (inactive)
[12]
  IC50: > 20 µM (inactive)

## CC(=C(CCOC(=O)C(C)C)SSC(CCOC(=O)C(C)C)=C(C)N(C=O)Cc1cnc(C)nc1N)N(C=O)Cc1cnc(C)nc1N [SULBUTIAMINE]
[13]
  IC50: > 33.3 µM (inactive)
[14]
  IC50: > 40 µM (inactive)
[15]
  IC50: 2.39 µM (active)

## CCOC(=O)c1cnc(SCCc2ccccc2)nc1N
[16]
  EC50: > 67.5 µM (inactive)

## Cc1ccc(C(=O)Nc2nnc(NC(=S)Nc3ccccc3)s2)cc1
[1]
  IC50: > 69.5 µM (inactive)
[17]
  EC50: 7.59 µM (active)

## CC(C)CCCC(C)NCCC(C)C (stereo not drawn) [OCTAMYLAMINE]
[13]
  IC50: > 33.3 µM (inactive)
[14]
  IC50: > 40 µM (inactive)
[15]
  IC50: > 40 µM (inactive)

## CCc1cnc(N2[C@@H](C#N)[C@@H](c3ccc(C#CC(C)C)cc3)[C@@H]2CO)s1
[18]
  AC50: 24.7 µM (active)
[19]
  AC50: > 70 µM (inactive)
[20]
  AC50: 15.4 µM (active)
[21]
  AC50: 39.6 µM (active)
[22]
  AC50: 29.4 µM (active)
[23]
  AC50: 35.3 µM (active)
[24]
  AC50: 23.6 µM (active)

## Cc1cccc(NS(=O)(=O)c2ccc(C3CCCCC3)cc2)c1
[25]
  EC50: 6.98 µM (active)
[26]
  EC50: 6.43 µM (active)
[27]
  AC50: 5.13 µM (active)
[28]
  AC50: > 70 µM (inactive)
[29]
  AC50: 4.66 µM (active)
[30]
  EC50: 5.02 µM (active)
[31]
  AC50: 5.27 µM (active)

## CC[C@H]1C=C[C@@H](C(=O)NS(=O)(=O)c2ccc(C)cc2)N(C(C)=O)C1
[3]
  IC50: > 122 µM (inactive)
[4]
  IC50: > 122 µM (inactive)

## O=C(/C=C/c1ccc(F)cc1)N1CCN(S(=O)(=O)c2ccccc2)CC1
[32]
  IC50: 0.0125 µM (active)

## Cn1c(CCN2CCCC2)nc2cc(NS(=O)(=O)c3ccc(Cl)cc3)ccc21
[18]
  AC50: 72.5 µM (active)
[19]
  AC50: 20.2 µM (active)
[33]
  AC50: 26.9 µM (active)
[20]
  AC50: 6.57 µM (active)
[21]
  AC50: > 100 µM (inactive)
[34]
  AC50: 18.9 µM (active)
[22]
  AC50: 52.5 µM (active)
[23]
  AC50: 12.8 µM (active)
[24]
  AC50: 16.8 µM (active)
[35]
  AC50: 46.1 µM (active)

## COc1cccc(-c2nc(-c3ccc(Br)o3)no2)c1
[36]
  AC50: > 52 µM (inactive)
[16]
  EC50: > 67.5 µM (inactive)

## CCCNC(=O)N1[C@H](C#N)[C@H](c2ccc(C3=CCCCC3)cc2)[C@@H]1CO
[37]
  AC50: 3.39 µM (active)
[38]
  AC50: < 0.3 µM (active)
[39]
  AC50: 0.601 µM (active)
[40]
  AC50: 0.0228 µM (active)
[41]
  AC50: 0.355 µM (active)
[42]
  AC50: 0.0853 µM (active)

## C[C@@H]1CN([C@@H](C)CO)C(=O)c2cc(C#Cc3ccccc3)cnc2O[C@H]1CN(C)C(=O)c1ccccc1
[41]
  AC50: 4.99 µM (active)

## O=C(/C=C/c1ccc(Br)cc1)N1CCN(S(=O)(=O)c2ccc(Br)cc2)CC1
[32]
  IC50: 0.00166 µM (active)
